A value given as a limit tells only on which side of the number the result lay.

This experiment relates to Heterodera schachtii. Description: Heterodera schachtii (sugar beet cyst nematode), nematicide, contact activity: juvenile paralysis in 16-well assay plates. The experiment is classed as in vivo. The note with it: 200 ppm, approx. 500 juveniles per well, 24 hours incubation at 25° C. in darkness, read-out: nematode immobilization compared to the untreated control. As to the method:
Heterodera schachtii (Sugar Beet Cyst Nematode), Nematicide, Contact Activity
The tested application rate of each compound was 200 ppm. All solutions were brought to a concentration of 400 ppm, respectively, as they were subsequently diluted by adding the equivalent amount of water containing juvenile nematodes. After preparation of the suspensions, 1 ml of each suspension and concentration was transferred to 16-well assay plates with a total of three replicates per treatment. Approximately 500 juveniles of Heterodera schachtii were added in 1 ml of water to each well. Nematodes in water served as controls. The plates were placed in a dark box and stored at room temperature. Nematode paralysis was determined after 24 hours incubation at 25° C. in darkness.
For the compound `O=C(N[C@H]1CC[C@H]1c1ccc(Cl)cc1Cl)c1nccnc1Cl` [Compound 61.3, 3-chloro-N-[(1S,2S)-2-(2,4-dichlorophenyl)cyclobutyl]pyrazine-2-carboxamide], the pest or weed control at 200 ppm was > 75%.
`O=C(N[C@H]1CC[C@H]1c1ccc(Cl)cc1Cl)c1ncccc1C(F)(F)F` [Compound 61.4, N-[(1S,2S)-2-(2,4-dichlorophenyl)cyclobutyl]-3-(trifluoromethyl)pyridine-2-carboxamide]: the pest or weed control at 200 ppm was > 75%.
Take `COc1cccnc1C(=O)N[C@H]1CC[C@H]1c1ccc(Cl)cc1` [Compound 61.11, N-[(1S,2S)-2-(4-chlorophenyl)cyclobutyl]-3-methoxypyridine-2-carboxamide]: the pest or weed control at 200 ppm is > 75%.
In the case of `O=C(N[C@H]1CC[C@H]1c1ccc(Cl)cc1)c1sccc1Br` [Compound 61.14, 3-bromo-N-[(1S,2S)-2-(4-chlorophenyl)cyclobutyl]thiophene-2-carboxamide], the pest or weed control at 200 ppm was > 75%.
The value for `O=C(N[C@H]1CC[C@H]1c1ccc(Cl)cc1)c1ncccc1Br` [Compound 61.15, 3-bromo-N-[(1S,2S)-2-(4-chlorophenyl)cyclobutyl]pyridine-2-carboxamide] was > 75%; that for `O=C(N[C@H]1CC[C@H]1c1ccc(Cl)cc1)c1ccccc1Br` [Compound 61.21, 2-bromo-N-[(1S,2S)-2-(4-chlorophenyl)cyclobutyl]benzamide] was > 75%; that for `O=C(N[C@H]1CC[C@H]1c1ccc(Cl)cc1)c1c(F)cccc1Cl` [Compound 61.22, 2-chloro-N-[(1S,2S)-2-(4-chlorophenyl)cyclobutyl]-6-fluorobenzamide] was > 75%.
With `Cc1ncccc1C(=O)N[C@H]1CC[C@H]1c1ccc(Cl)cc1` [Compound 61.23, N-[(1S,2S)-2-(4-chlorophenyl)cyclobutyl]-2-methylpyridine-3-carboxamide], the pest or weed control at 200 ppm was > 75%.
`COc1cccc(F)c1C(=O)N[C@H]1CC[C@H]1c1ccc(Cl)cc1` [Compound 61.24, N-[(1S,2S)-2-(4-chlorophenyl)cyclobutyl]-2-fluoro-6-methoxybenzamide]: the pest or weed control at 200 ppm was > 75%.
For `Cc1cccc(F)c1C(=O)N[C@H]1CC[C@H]1c1ccc(Cl)cc1` [Compound 61.25, N-[(1S,2S)-2-(4-chlorophenyl)cyclobutyl]-2-fluoro-6-methylbenzamide], the pest or weed control at 200 ppm is > 75%.
As for `Cc1nccnc1C(=O)N[C@H]1CC[C@H]1c1ccc(Cl)cc1` [Compound 61.26, N-[(1S,2S)-2-(4-chlorophenyl)cyclobutyl]-3-methylpyrazine-2-carboxamide], the pest or weed control at 200 ppm is > 75%.
The result for `O=C(N[C@H]1CC[C@H]1c1ccc(Cl)cc1)c1sccc1Cl` [Compound 61.36, 3-chloro-N-[(1S,2S)-2-(4-chlorophenyl)cyclobutyl]thiophene-2-carboxamide] reads > 75%; that for `O=C(N[C@H]1CC[C@H]1c1ccc(Cl)cc1)c1ncccc1Cl` [Compound 61.46, 3-chloro-N-[(1S,2S)-2-(4-chlorophenyl)cyclobutyl]pyridine-2-carboxamide], > 75%; that for `O=C(N[C@H]1CC[C@H]1c1ccc(Cl)cc1)c1ncccn1` [Compound 61.47, N-[(1S,2S)-2-(4-chlorophenyl)cyclobutyl]pyrimidine-2-carboxamide], > 75%.
Regarding `O=C(N[C@H]1CC[C@H]1c1ccc(Cl)cc1)c1ccsc1Cl` [Compound 61.52, 2-chloro-N-[(1S,2S)-2-(4-chlorophenyl)cyclobutyl]thiophene-3-carboxamide], the pest or weed control at 200 ppm is > 75%.
`O=C(N[C@H]1CC[C@H]1c1ccc(Cl)cc1)c1ccsc1I` [Compound 61.53, N-[(1S,2S)-2-(4-chlorophenyl)cyclobutyl]-2-iodothiophene-3-carboxamide]: the pest or weed control at 200 ppm was > 75%.
For the compound `O=C(N[C@H]1CC[C@H]1c1ccc(Cl)cc1)c1ccsc1C(F)(F)F` [Compound 61.54, N-[(1S,2S)-2-(4-chlorophenyl)cyclobutyl]-2-(trifluoromethyl)thiophene-3-carboxamide], the pest or weed control at 200 ppm was > 75%.
The result for `COc1cccnc1C(=O)N[C@H]1CC[C@H]1c1ccc(Cl)cc1Cl` [Compound 61.56, N-[(1S,2S)-2-(2,4-dichlorophenyl)cyclobutyl]-3-methoxypyridine-2-carboxamide] reads > 75%; that for `COc1ccccc1C(=O)N[C@H]1CC[C@H]1c1ccc(Cl)cc1Cl` [Compound 61.58, N-[(1S,2S)-2-(2,4-dichlorophenyl)cyclobutyl]-2-methoxybenzamide], > 75%; that for `O=C(N[C@H]1CC[C@H]1c1ccc(Cl)cc1Cl)c1sccc1Br` [Compound 61.59, 3-bromo-N-[(1S,2S)-2-(2,4-dichlorophenyl)cyclobutyl]thiophene-2-carboxamide], > 75%.
The result for `Cc1ccccc1C(=O)N[C@H]1CC[C@H]1c1ccc(Cl)cc1Cl` [Compound 61.62, N-[(1S,2S)-2-(2,4-dichlorophenyl)cyclobutyl]-2-methylbenzamide] reads > 75%; that for `O=C(N[C@H]1CC[C@H]1c1ccc(Cl)cc1Cl)c1ccccc1F` [Compound 61.65, N-[(1S,2S)-2-(2,4-dichlorophenyl)cyclobutyl]-2-fluorobenzamide], > 75%; that for `Cc1nccnc1C(=O)N[C@H]1CC[C@H]1c1ccc(Cl)cc1Cl` [Compound 61.70, N-[(1S,2S)-2-(2,4-dichlorophenyl)cyclobutyl]-3-methylpyrazine-2-carboxamide], > 75%.
The result for `O=C(N[C@H]1CC[C@H]1c1ccc(Cl)cc1Cl)c1ccc[nH]1` [Compound 61.72, N-[(1S,2S)-2-(2,4-dichlorophenyl)cyclobutyl]-1H-pyrrole-2-carboxamide] reads > 75%; that for `Cc1ncoc1C(=O)N[C@H]1CC[C@H]1c1ccc(Cl)cc1Cl` [Compound 61.73, N-[(1S,2S)-2-(2,4-dichlorophenyl)cyclobutyl]-4-methyl-1,3-oxazole-5-carboxamide], > 75%; that for `Cc1nscc1C(=O)N[C@H]1CC[C@H]1c1ccc(Cl)cc1Cl` [Compound 61.74, N-[(1S,2S)-2-(2,4-dichlorophenyl)cyclobutyl]-3-methyl-1,2-thiazole-4-carboxamide], > 75%.
`O=C(N[C@H]1CC[C@H]1c1ccc(Cl)cc1Cl)c1sccc1Cl` [Compound 61.79, 3-chloro-N-[(1S,2S)-2-(2,4-dichlorophenyl)cyclobutyl]thiophene-2-carboxamide]: the pest or weed control at 200 ppm was > 75%.
Regarding `O=C(N[C@H]1CC[C@H]1c1ccc(Cl)cc1Cl)c1ccccc1OC(F)(F)F` [Compound 61.81, N-[(1S,2S)-2-(2,4-dichlorophenyl)cyclobutyl]-2-(trifluoromethoxy)benzamide], the pest or weed control at 200 ppm is > 75%.
The value for `Cc1oncc1C(=O)N[C@H]1CC[C@H]1c1ccc(Cl)cc1Cl` [Compound 61.83, N-[(1S,2S)-2-(2,4-dichlorophenyl)cyclobutyl]-5-methyl-1,2-oxazole-4-carboxamide] was > 75%; that for `O=C(N[C@H]1CC[C@H]1c1ccc(Cl)cc1Cl)c1c(F)cccc1C(F)(F)F` [Compound 61.84, N-[(1S,2S)-2-(2,4-dichlorophenyl)cyclobutyl]-2-fluoro-6-(trifluoromethyl)benzamide] was > 75%; that for `O=C(N[C@H]1CC[C@H]1c1ccc(Cl)cc1Cl)C1=C(C(F)(F)F)OCCS1` [Compound 61.85, N-[(1S,2S)-2-(2,4-dichlorophenyl)cyclobutyl]-6-(trifluoromethyl)-2,3-dihydro-1,4-oxathiine-5-carboxamide] was > 75%.
On to `CC1=C(C(=O)N[C@H]2CC[C@H]2c2ccc(Cl)cc2Cl)SCCO1` [Compound 61.86, N-[(1S,2S)-2-(2,4-dichlorophenyl)cyclobutyl]-6-methyl-2,3-dihydro-1,4-oxathiine-5-carboxamide], for which the pest or weed control at 200 ppm was > 75%.
Consider `O=C(N[C@H]1CC[C@H]1c1ccc(Cl)cc1Cl)c1ccsc1Br` [Compound 61.87, 2-bromo-N-[(1S,2S)-2-(2,4-dichlorophenyl)cyclobutyl]thiophene-3-carboxamide], for which the pest or weed control at 200 ppm is > 75%.
The result for `O=C(N[C@H]1CC[C@H]1c1ccc(Cl)cc1Cl)c1cscn1` [Compound 61.88, N-[(1S,2S)-2-(2,4-dichlorophenyl)cyclobutyl]-1,3-thiazole-4-carboxamide] reads > 75%; that for `O=C(N[C@H]1CC[C@H]1c1ccc(Cl)cc1Cl)c1ccccc1Cl` [Compound 61.89, 2-chloro-N-[(1S,2S)-2-(2,4-dichlorophenyl)cyclobutyl]benzamide], > 75%.
In the case of `O=C(N[C@H]1CC[C@H]1c1ccc(Cl)cc1Cl)c1ncccn1` [Compound 61.90, N-[(1S,2S)-2-(2,4-dichlorophenyl)cyclobutyl]pyrimidine-2-carboxamide], the pest or weed control at 200 ppm was > 75%.
On to `N#Cc1ccccc1C(=O)N[C@H]1CC[C@H]1c1ccc(Cl)cc1Cl` [Compound 61.91, 2-cyano-N-[(1S,2S)-2-(2,4-dichlorophenyl)cyclobutyl]benzamide], for which the pest or weed control at 200 ppm was > 75%.
As for `Cc1cccnc1C(=O)N[C@H]1CC[C@H]1c1ccc(Cl)cc1Cl` [Compound 61.92, N-[(1S,2S)-2-(2,4-dichlorophenyl)cyclobutyl]-3-methylpyridine-2-carboxamide], the pest or weed control at 200 ppm was > 75%.

(Values after patent publication USRE50724E1, “4-membered ring carboxamides used as nematicides” (SYNGENTA CROP PROTECTION AG, priority 2013, dated 2026).)
